Measurements from patent US7863315B2, “2-indolinone derivatives as selective histone deacetylase inhibitors” (Shenzhen Chipscreen Biosciences, Ltd., priority 2008, dated 2011).

Columns and labels:
Format in all cases: cell-based
[1] = tested on: HDAC class I (p21 reporter gene); assay: HDAC subtype reporter gene assay, p21-promoter luciferase in HeLa cells; details: Homo sapiens, M-HeLa, read-out: % of SAHA Response for HDAC class I at 10 μM (p21 reporter gene), 24 hours
Protocol: (§1) Measurement of inhibition of HDAC subtypes activity in cells by reporter gene assay: HDAC subtype selectivity inhibition assay of tested compounds was carried out by several reporter gene assays experiments. Briefly, HeLa cells were seeded in 96-well plates the day before transfection to give a confluence of 50-80%. Cells were transfected with one of reporter gene plasmids containing a promoter sequences or response elements upstream of a luciferase gene construct using FuGene6 transfection reagent according to the manufacturer's instructions (Roche). The promoters or response elements including p21-promoter, gdf11-promoter, MEF-binding element (MEF2), Nur77-promoter were fused upstream to the luciferase gene reporter construct. For normalizing the transfection efficiency, a GFP expression plasmid was cotransfected. Cells were allowed to express protein for 24 hours followed by addition of individual compounds or the vehicle (DMSO). 24 hours later, the cells were harvested and the luciferase assays were performed using the luciferase assay kit according to the manufacturer's instructions (Promega). To normalize the data from the luciferase assays, GFP activity from transfected cells was measured in a microtiter-plate reading fluorimeter capable of excitation at a wavelength at 485 nm and detection of emitted light at 527 nm.

[2] = tested on: HDAC3 (gdf11 reporter gene); assay: HDAC subtype reporter gene assay, gdf11-promoter luciferase in HeLa cells; details: Homo sapiens, M-HeLa, read-out: % of SAHA Response for HDAC3 at 10 μM (gdf11 reporter gene), 24 hours
Protocol: as §1

[3] = target: T1, HDAC6 (α-tubulin acetylation) (Homo sapiens, UniProt Q9UBN7); assay: ELISA assay of acetylation of α-tubulin in HeLa cells; details: M-HeLa, 24 hours
T1 construct: endogenous in cells; host or cells: HeLa
T1 sequence (Q9UBN7 1-1215): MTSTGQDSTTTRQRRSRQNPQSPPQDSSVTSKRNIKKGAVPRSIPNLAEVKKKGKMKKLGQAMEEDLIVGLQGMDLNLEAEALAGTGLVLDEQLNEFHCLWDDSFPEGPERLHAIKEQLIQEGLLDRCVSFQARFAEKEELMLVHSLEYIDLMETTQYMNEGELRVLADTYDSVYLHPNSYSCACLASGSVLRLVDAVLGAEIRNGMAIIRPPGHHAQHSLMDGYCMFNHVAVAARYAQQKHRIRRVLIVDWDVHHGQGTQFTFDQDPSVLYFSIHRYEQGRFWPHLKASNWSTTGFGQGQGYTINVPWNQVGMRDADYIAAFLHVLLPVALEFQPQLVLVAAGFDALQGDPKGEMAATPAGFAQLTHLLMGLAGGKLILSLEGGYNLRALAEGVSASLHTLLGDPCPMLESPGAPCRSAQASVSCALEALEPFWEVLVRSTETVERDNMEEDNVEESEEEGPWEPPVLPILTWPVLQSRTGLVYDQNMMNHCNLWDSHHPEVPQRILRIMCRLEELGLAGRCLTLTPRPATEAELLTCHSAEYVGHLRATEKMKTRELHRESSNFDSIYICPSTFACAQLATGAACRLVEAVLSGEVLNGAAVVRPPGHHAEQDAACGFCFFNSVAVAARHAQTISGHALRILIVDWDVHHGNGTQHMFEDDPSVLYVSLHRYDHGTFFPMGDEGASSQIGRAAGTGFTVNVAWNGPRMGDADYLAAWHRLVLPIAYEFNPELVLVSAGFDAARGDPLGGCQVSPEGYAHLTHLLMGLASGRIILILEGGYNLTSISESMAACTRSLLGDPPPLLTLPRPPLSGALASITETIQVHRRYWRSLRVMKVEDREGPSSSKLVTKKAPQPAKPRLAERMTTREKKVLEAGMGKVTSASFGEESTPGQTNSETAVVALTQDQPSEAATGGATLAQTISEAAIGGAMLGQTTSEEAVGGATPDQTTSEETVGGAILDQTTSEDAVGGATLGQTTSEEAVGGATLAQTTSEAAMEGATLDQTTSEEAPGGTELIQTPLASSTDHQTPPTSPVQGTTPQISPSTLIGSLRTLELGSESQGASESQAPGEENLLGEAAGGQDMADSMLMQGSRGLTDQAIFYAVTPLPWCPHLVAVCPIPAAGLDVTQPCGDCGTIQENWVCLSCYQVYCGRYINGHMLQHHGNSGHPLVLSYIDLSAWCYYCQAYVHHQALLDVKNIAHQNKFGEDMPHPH
Protocol: Measurement of acetylation activity in cells on substrates:
ELISA assay of acetylation of α-tubulin
This assay is used to measure in vivo inhibition of HDAC6 in a cytoblot assay. Materials and Reagent: • 1. 24-well tissue culture • 2. DMEM Medium containing 10% FBS • 3. 96-well white plate • 4. HeLa cell line • 5. M-PER Mammalian Protein Extraction Reagent (Pierce) • 6. Bradford assay reagent • 7. Anti-acetyl-tubulin (Upstate) • 8. HRP-labeled anti-mouse IgG (Upstate) • 9. Coating Buffer: 15 mM Na2CO3, 35 mM NaHCO3 (pH 9.6) • 10. 10×PBS: 0.58 M Na2HPO4, 0.17M NaH2PO4, 0.68M NaCl (pH 7.4) • 11. Wash Buffer:1×PBS containing 0.05% Tween-20 (PBST) • 12. Blocking Buffer:10 mg/ml bocine serum albumin (BSA) in PBS • 13. Antibody Dilution Buffer: 5 mg/ml BSA in PBST • 14. Enhanced chemiluminescence (ECL) (Amersham)
Procedure for performing the assay in 96-well plate: • 1. HeLa cells were seeded at a density of 60000 cells/500 μl/well in 24-well plate and incubated at 37° C. for 24 hours. • 2. Compounds were added and incubated for 24 hours at 37° C. • 3. Culture medium was removed, then washes the cells twice with ice-cold PBS. • 4. Add 100 μl/well of Protein Extraction Reagent and gently shake the mixture for 5 minutes. • 5. Collect the lysate to a 96-well plate respectively. Determine the concentration of protein by Bradford assay. • 6. Coat the wells of a 96-well white plate with 100 μl/well of 2.5 μg whole cell protein in Coating Buffer by incubating overnight at 4° C. • 7. Discard the uncoated proteins and wash the coated wells three times with 200 μl/well of PBST. • 8. Block coated wells by incubating the plate with 200 μl/well of Blocking Buffer for 1 hour at 37° C. • 9. Wells were aspirated and washed three times with 200 μl/well of PBST. • 10. After aspirating, 50 μl/well of Antibody Dilution Buffer containing anti-Ac-tubulin (1:1000) were added to each well and incubated for 2 hour at 37° C. • 11. Wells were aspirated and washed three times with 200 μl/well of PBST. • 12. 50 μl/well of Antibody Dilution Buffer containing HRP-labeled anti-mouse IgG (1:2000) were added to each well and incubated for 2 hour at 37° C. • 13. Wells were aspirated and washed three times with 200 μl/well of PBST. • 14. Wells were washed three times with 200 μl/well of purified water. • 15. Add 50 μl/well of ECL mixture, then read the plates on the plate reader.

Compound	fold induction at 10 µM [3]	Emax at 10 µM [1] [%]	Emax at 10 µM [2] [%]
Cc1[nH]c(/C=N/N=C2\C(=O)Nc3ccc(F)cc32)c(C)c1C(=O)NCCCCC(=O)Nc1ccccc1N [Example 7, 5-(5-(((5-fluoro-2-oxoindolin-3-ylidene)hydrazono)methyl)-2,4-dimethyl-1H-pyrrole-3-carboxamido)-N-(2-aminophenyl)pentanamide]	1.03	11	7
Cc1[nH]c(/C=N/N=C2\C(=O)Nc3ccc(F)cc32)c(C)c1C(=O)NCCCCC(=O)Nc1ccc(F)cc1N [Example 8, 5-(5-(((5-fluoro-2-oxoindolin-3-ylidene)hydrazono)methyl)-2,4-dimethyl-1H-pyrrole-3-carboxamido)-N-(2-amino-4-fluorophenyl)pentanamide]	1.76	7	5
Cc1[nH]c(/C=N/N=C2\C(=O)Nc3ccc(F)cc32)c(C)c1C(=O)NCCCCCC(=O)NO [Example 11, 6-(5-(((5-fluoro-2-oxoindolin-3-ylidene)hydrazono)methyl)-2,4-dimethyl-1H-pyrrole-3-carboxamido)-N-hydroxyhexanamide]	2.17	52	49
Cc1[nH]c(/C=N/N=C2\C(=O)Nc3ccc(F)cc32)c(C)c1C(=O)NCCCCCC(=O)Nc1ccc(F)cc1N [Example 12, 6-(5-(((5-fluoro-2-oxoindolin-3-ylidene)hydrazono)methyl)-2,4-dimethyl-1H-pyrrole-3-carboxamido)-N-(2-amino-4-fluorophenyl)hexanamide]	2.04	9	6
Cc1[nH]c(/C=N/N=C2\C(=O)Nc3ccc(F)cc32)c(C)c1C(=O)NCCCCCCCC(=O)NO [Example 26, 8-(5-(((5-fluoro-2-oxoindolin-3-ylidene)hydrazono)methyl)-2,4-dimethyl-1H-pyrrole-3-carboxamido)-N-hydroxyoctanamide]	1.85	53	38
Cc1[nH]c(/C=N/N=C2\C(=O)Nc3ccc(F)cc32)c(C)c1C(=O)NCCCCCCCC(=O)Nc1ccc(F)cc1N [Example 27, 8-(5-(((5-fluoro-2-oxoindolin-3-ylidene)hydrazono)methyl)-2,4-dimethyl-1H-pyrrole-3-carboxamido)-N-(2-amino-4-fluorophenyl)octanamide]	1.64	8	6
Cc1[nH]c(/C=N/N=C2\C(=O)Nc3ccc(F)cc32)c(C)c1C(=O)NCCCCCCCC(=O)Nc1ccccc1N [Example 28, 8-(5-(((5-fluoro-2-oxoindolin-3-ylidene)hydrazono)methyl)-2,4-dimethyl-1H-pyrrole-3-carboxamido)-N-(2-aminophenyl)octanamide]	1.74	36	26
Nc1cc(F)ccc1NC(=O)CCCCCNC(=O)c1ccc(/C=C2\C(=O)Nc3ccc(F)cc32)cc1 [Example 40, 6-(4-((5-fluoro-2-oxoindolin-3-ylidene)methyl)benzamido)-N-(2-amino-4-fluorophenyl)hexanamide]	1.04	19	13

Now from value to compound, other results behind:

fold induction at 10 µM [3]	Compound	Emax at 10 µM [1] [%]	Emax at 10 µM [2] [%]
2.73	Cc1[nH]c(/C=N/N=C2\C(=O)Nc3ccc(F)cc32)c(C)c1C(=O)NCCCCCC(=O)Nc1ccccc1N [Example 13, 6-(5-(((5-fluoro-2-oxoindolin-3-ylidene)hydrazono)methyl)-2,4-dimethyl-1H-pyrrole-3-carboxamido)-N-(2-aminophenyl)hexanamide]	18	13
1.88	O=C(CCCCCNC(=O)c1ccc(/C=N/N=C2\C(=O)Nc3ccc(F)cc32)cc1)NO [Example 31, 6-(4-(((5-fluoro-2-oxoindolin-3-ylidene)hydrazono)methyl)benzamido)-N-hydroxyhexanamide]	39	36
2.59	Nc1ccccc1NC(=O)CCCCCNC(=O)c1ccc(/C=N/N=C2\C(=O)Nc3ccc(F)cc32)cc1 [Example 32, 6-(4-(((5-fluoro-2-oxoindolin-3-ylidene)hydrazono)methyl)benzamido)-N-(2-aminophenyl)hexanamide]	17	12
1.39	Nc1ccccc1NC(=O)CCCCCCCNC(=O)c1ccc(/C=N/N=C2\C(=O)Nc3ccc(F)cc32)cc1 [Example 35, 8-(4-(((5-fluoro-2-oxoindolin-3-ylidene)hydrazono)methyl)benzamido)-N-(2-aminophenyl)octanamide]	56	36
1.57	Nc1cc(F)ccc1NC(=O)CCCCCCCNC(=O)c1ccc(/C=N/N=C2\C(=O)Nc3ccc(F)cc32)cc1 [Example 36, 8-(4-(((5-fluoro-2-oxoindolin-3-ylidene)hydrazono)methyl)benzamido)-N-(2-amino-4-fluorophenyl)octanamide]	9	6
0.93	Nc1ccccc1NC(=O)CCCCCNC(=O)c1ccc(/C=C2\C(=O)Nc3ccc(F)cc32)cc1 [Example 39, 6-(4-((5-fluoro-2-oxoindolin-3-ylidene)methyl)benzamido)-N-(2-aminophenyl)hexanamide]	67	41
